For orientation: inhibition means the share of the control response that was lost under treatment. Low readings indicate a weak effect, high ones a strong effect.

Marks after values point to notes of the source that are not given here.

For series [1], the system named is cotton pellet induced granuloma. The experiment in a line: Cotton pellet granuloma (compound impregnated in pellet). Format: in vivo. The following applies: SD rats. As for the experimental part:
SD rats were used for assessing anti-inflammatory activity of test compound using cotton pellet granuloma method. Sterilized cotton pellets weighing 20 mg were prepared. Test compounds were dissolved in acetone so as to get the required quantity for each cotton pellet in 500 μl. Different pellets were impregnated with 500 μl of acetone to contain required quantity of test compounds and allowed to dry. Vehicle control pellets were impregnated with 500 μl acetone. Rats were made into different groups. Two cotton pellets were surgically implanted into the scapular region of each rat. On sixth day of such implantation, pellets along with granuloma were taken out. Thymus gland was also separated from each animal and weighed. The pellets with granuloma were dried for 20 hrs at 60° C. and weighed. Mean weights of dry granuloma and thymus, body weight gain/100 g body weights were calculated.

Another series has as its target T1, glucocorticoid receptors (Homo sapiens, UniProt P04150).
T1 construct: host or cells: Human HeLa cells
T1 sequence (P04150 1-777): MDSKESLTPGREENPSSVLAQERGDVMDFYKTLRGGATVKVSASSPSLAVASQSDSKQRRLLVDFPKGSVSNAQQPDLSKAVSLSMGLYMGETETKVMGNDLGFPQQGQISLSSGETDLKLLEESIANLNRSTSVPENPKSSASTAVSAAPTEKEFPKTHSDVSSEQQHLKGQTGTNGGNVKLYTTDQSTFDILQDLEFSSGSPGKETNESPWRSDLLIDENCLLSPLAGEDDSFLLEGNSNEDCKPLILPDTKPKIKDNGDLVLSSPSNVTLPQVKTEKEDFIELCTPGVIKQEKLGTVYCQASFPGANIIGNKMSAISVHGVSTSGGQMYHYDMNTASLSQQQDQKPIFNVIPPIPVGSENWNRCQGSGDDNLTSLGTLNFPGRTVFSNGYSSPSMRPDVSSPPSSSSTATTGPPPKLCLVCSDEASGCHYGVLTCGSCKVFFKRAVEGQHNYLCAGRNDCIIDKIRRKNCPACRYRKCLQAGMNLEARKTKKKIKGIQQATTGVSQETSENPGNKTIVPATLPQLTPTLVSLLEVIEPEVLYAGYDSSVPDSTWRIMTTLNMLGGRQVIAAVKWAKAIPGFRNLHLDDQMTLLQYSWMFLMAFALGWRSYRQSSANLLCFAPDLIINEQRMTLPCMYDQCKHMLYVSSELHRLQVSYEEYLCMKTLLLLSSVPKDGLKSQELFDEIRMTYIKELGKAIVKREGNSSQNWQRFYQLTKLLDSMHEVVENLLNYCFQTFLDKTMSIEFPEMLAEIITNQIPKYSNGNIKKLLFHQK
The experiment in a line: Glucocorticoid receptor binding assay ([3H]dexamethasone radioligand). The note with it: HeLa cells transfected with glucocorticoid receptors. As for the experimental part:
The steroid receptor binding assay were performed by MDS Pharma Services at their Taipei (Taiwan) pharmacology laboratory.
The activity of test compounds on glucocorticoid receptor was assessed using radioligand binding assays. […] Free [^3H]dexamethasone was removed from the medium by centrifugation and concentration of receptor bound ligand was determined in the supernatant by liquid scintillation counting.
The % inhibition was evaluated using a single concentration of test compound and the corresponding radiolabeled ligand. Results are presented as the percent inhibition of specific binding. The values are average of duplicate determinations for each concentration.

Series [2] concerns croton oil induced ear edema. The series is described as follows: Croton oil ear edema. The note with it: inhibition at 1.6 μg, applied to ear, mice. In kind it is in vivo, Mice (male, CD-1). As for the experimental part: Mice (male, CD-1) were made into different groups. Test compounds were dissolved in pyridine-water-acetone (4:2:14) solution […] of compound or vehicle solution was applied to the left ear of the mice. The right ear of each mouse was applied simultaneously with 10 μl of pyridine:water:acetone (4:2:14) solution. After 2 hrs of compound or vehicle application, 10 μl of croton oil solution was applied to the left ear of all animals. After 6 hr of croton oil treatment the animals were sacrificed; ears were excised and weighed separately.

Series [3] deals with liver glycogen deposition. Format: in vivo, Male Sprague Dawley rats. The following applies: 3 mg/kg intratracheally, 2 doses 24 hrs apart, adrenalectomized rats. How it is done:
Male Sprague Dawley rats, weighing 190-220 g were bilaterally adrenalectomized and maintained on 0.9% saline solution throughout the experiment. On day 5th and 6th of adrenalectomy, animals were made into different groups, test compounds prepared in cold saline (sonicated for 30 min) were instilled intratracheally 2 doses@3 mg/kg, 24 hrs apart. At 15 hrs after the last treatment, animals were sacrificed and livers were excised and weighed. The glycogen content of the livers was determined by anthrone method. Briefly, a weighed quantity of liver tissue was homogenized with 5% trichloroacetic acid, supernatant mixed with ethanol and kept overnight for precipitation. The glycogen thus extracted was estimated as glucose generated after acid hydrolysis by addition of anthrone reagent at 620 nm. Glycogen content was expressed as mg/100 g liver.

In series [4] the test system is Sephadex induced lung edema. The experiment in a line: in vivo. The note with it: SD rat. As for the experimental part: Sephadex G-200 was prepared in sterile saline (10 mg/ml) and allowed to swell for at least 3 days at room temperature. Test compounds were prepared as suspensions by grinding and sonicating the solid in chilled saline. All the compounds were administered intratracheally at 24 hrs and 2 hrs prior to intratracheal administration of Sephadex (5 mg/kg) under light ether anesthesia. Vehicle control animals were administered vehicle instead of Sephadex. At 24 hr after Sephadex instillation, lung and thymus were excised from individual animals and weighed. Wet weight of lung and thymus was corrected for 100 g of initial body weight. The percentage increase in lung weight caused by Sephadex and its inhibitions by the compounds, were calculated. The percentage inhibitions of thymus compared to vehicle control group were also calculated.

Regarding `CCC(=O)O[C@]1(C(=O)OCC(=O)c2ccccc2)[C@H](C)CC2C3C[C@H](F)C4=CC(=O)C=C[C@]4(C)[C@@]3(F)[C@@H](O)C[C@@]21C` (stereo partly drawn) [IA.44, 2-Phenyl-2-oxoethyl 6α,9α-difluoro-11β-hydroxy-16α-methyl-3-oxo-17α-propionyloxyandrosta-1,4-diene-17β-carboxylate], the “Mean % Inhibition of Granuloma” value in series [1] (dose 1000 mcg per pellet) came to 71.79%.
On glucocorticoid receptors (% inhibition at 10 nM), `C[C@@H]1CC2C3C[C@H](F)C4=CC(=O)C=C[C@]4(C)[C@@]3(F)[C@@H](O)C[C@]2(C)[C@@]1(OC(=O)c1ccco1)C(=O)SCC#CCOC(=O)N(C)C` (stereo partly drawn) [IB.103, S-[4-(N,N-Dimethylaminocarbonyloxy)-but-2-ynyl]6α,9α-difluoro-17α-[(2-furanyl-carbonyl)oxy]-11β-hydroxy-16α-methyl-3-oxoandrosta-1,4-diene-17β-carbothioate] displayed an inhibition at 0.01 µM of 78%.
In the case of `CCC(=O)O[C@]1(C(=O)SC(C)(C)C(=O)c2ccccc2)[C@H](C)CC2C3C[C@H](F)C4=CC(=O)C=C[C@]4(C)[C@@]3(F)[C@@H](O)C[C@@]21C` (stereo partly drawn) [IA.59, S-[1,1-Dimethyl-2-oxo-2-phenylethyl]6α,9α-difluoro-11β-hydroxy-16α-methyl-3-oxo-17α-propionyloxyandrosta-1,4-diene-17β-carbothioate], the “Mean % Inhibition of Granuloma” value in series [1] (dose 1000 mcg per pellet) is listed as 76.86%.
Regarding `CC1CC2C3CCC4=CC(=O)C=CC4(C)C3(F)C(O)CC2(C)C1(OC(=O)c1ccco1)C(=O)SOCc1ccc(F)cc1` (stereo not drawn) [IC.9, 9α-Fluoro-17α-[(2-furanylcarbonyl)oxy]-11β-hydroxy-16α-methyl-3-oxoandrosta-1,4-diene-17β-carbonylsulfenic acid (4-fluorophenyl)methyl ester.], in series [1] (dose 3 mcg per pellet), the “Mean % Inhibition of Granuloma” value turned out to be 34.3% and the “Thymus wt. (% Decrease)” value was 2.51%.
Turning to `CCC(=O)O[C@]1(C(=O)SCC(=O)c2ccc(C(F)(F)F)cc2)[C@H](C)CC2C3C[C@H](F)C4=CC(=O)C=C[C@]4(C)[C@@]3(F)[C@@H](O)C[C@@]21C` (stereo partly drawn) [IA.38, S-[2-Oxo-2-(4-trifluoromethylphenyl)ethyl]6α,9α-difluoro-11β-hydroxy-16α-methyl-3-oxo-17α-propionyloxyandrosta-1,4-diene-17β-carbothioate], the “Mean % Inhibition of Granuloma” value in series [1] (dose 10 mcg per pellet) is 67.17%.
As to `CCC(=O)O[C@]1(C(=O)SC)[C@H](C)C[C@H]2[C@@H]3C[C@H](F)C4=CC(=O)C=C[C@]4(C)[C@@]3(F)[C@@H](O)C[C@@]21C` [IC.13, 6α,9α-Difluoro-11β-hydroxy-16α-methyl-3-oxo-17α-propionyloxyandrosta-1,4-diene-17β-carbonylsulfenic acid methyl ester.], the “Mean % Inhibition (croton oil ear edema)” value in series [2] is 41.79^a %.
Consider `CC1CC2C3CC(F)C4=CC(=O)C=CC4(C)C3(F)C(O)CC2(C)C1(OC(=O)c1ccco1)C(=O)SOCc1ccc(Cl)cc1` (stereo not drawn) [IC.7, 6α,9α-Difluoro-17α-[(2-furanylcarbonyl)oxy]-11β-hydroxy-16α-methyl-3-oxoandrosta-1,4-diene-17β-carbonylsulfenic acid (4-chlorophenyl)methyl ester.], for which the “Glucocorticoid receptor binding % inhibition” value on glucocorticoid receptors (% inhibition at 10 nM) is listed as 41^b %.
On to `C[C@@H]1C[C@H]2[C@@H]3CCC4=CC(=O)C=C[C@]4(C)[C@@]3(Cl)[C@@H](O)C[C@]2(C)[C@@]1(OC(=O)c1ccco1)C(=O)CCl` [Mometasone furoate, (11β,16α)-9,21-Dichloro-17-[(2-furanylcarbonyl)oxy]-11-hydroxy-16-methylpregna-1,4-diene-3,20-dione], for which, in series [3], the “% Inhibition of thymus” value came out at 43.51% and the Glycogen content turned out to be 1117.32 mg/100 g liver.
With `COSC(=O)C1(OC(=O)c2ccco2)C(C)CC2C3CC(F)C4=CC(=O)C=CC4(C)C3(F)C(O)CC21C` (stereo not drawn) [IC.14, 6α,9α-Difluoro-17α-[(2-furanylcarbonyl)oxy]-11β-hydroxy-16α-methyl-3-oxoandrosta-1,4-diene-17β-carbonylsulfenic acid methyl ester], the “Mean % Inhibition (croton oil ear edema)” value in series [2] was 61.46^a %.
On to `CCC(=O)O[C@]1(C(=O)SCC#CCO)[C@H](C)CC2C3C[C@H](F)C4=CC(=O)C=C[C@]4(C)[C@@]3(F)[C@@H](O)C[C@@]21C` (stereo partly drawn) [IB.2, S-(4-Hydroxy-but-2-ynyl) 6α,9α-difluoro-11β-hydroxy-16α-methyl-3-oxo-17α-propionyloxyandrosta-1,4-diene-17β-carbothioate], for which testing at 0.003 µM on glucocorticoid receptors (% inhibition at 3 nM) gave an inhibition of 55%.
As for `CCOC(=O)C(=O)OC/C=C/CSC(=O)[C@@]1(OC(=O)CC)[C@H](C)CC2C3C[C@H](F)C4=CC(=O)C=C[C@]4(C)[C@@]3(F)[C@@H](O)C[C@@]21C` (stereo partly drawn) [IB.44, S-[4-(2-Ethoxy-1,2-dioxoethyl)oxy-(E)-but-2-enyl]6α,9α-difluoro-11β-hydroxy-16α-methyl-3-oxo-17α-propionyloxyandrosta-1,4-diene-17β-carbothioate], the “Mean % Inhibition (croton oil ear edema)” value in series [2] is recorded as 75.19^a %.
`C[C@@H]1CC2C3C[C@H](F)C4=CC(=O)C=C[C@]4(C)[C@@]3(F)[C@@H](O)C[C@]2(C)[C@@]1(OC(=O)c1ccco1)C(=O)SC/C=C\CO` (stereo partly drawn) [IB.15, S-(4-Hydroxy-(Z)-but-2-enyl) 6α,9α-difluoro-17α-[(2-furanylcarbonyl)oxy]-11β-hydroxy-16α-methyl-3-oxoandrosta-1,4-diene-17β-carbothioate] gave an inhibition at 0.01 µM at glucocorticoid receptors (% inhibition at 10 nM) of 83%. Also, the “Mean % inhibition Lung edema” value in series [4] (dose 1000 mcg/kg intratracheally) was 70.3%; in series [4] (dose 3000 mcg/kg intratracheally) it was 71.1%.
As for `CCCCC(=O)OCC#CCSC(=O)[C@@]1(OC(=O)CC)[C@H](C)CC2C3C[C@H](F)C4=CC(=O)C=C[C@]4(C)[C@@]3(F)[C@@H](O)C[C@@]21C` (stereo partly drawn) [IB.35, S-[4-n-Butylcarbonyloxy-but-2-ynyl]6α,9α-difluoro-11β-hydroxy-16α-methyl-3-oxo-17α-propionyloxyandrosta-1,4-diene-17β-carbothioate], the “Mean % Inhibition (croton oil ear edema)” value in series [2] is on record as 60.18^a %.
Consider “6α,9α-Difluoro-11β-hydroxy-16α-methyl-3-oxo-17α-propionyloxyandrosta-1,4-diene-17β-carbonylsulfenic acid (4-trifluoromethylphenyl)methyl eseter. [IC.8]”, for which, in series [1] (dose 3 mcg per pellet), the “Mean % Inhibition of Granuloma” value is given as 45.15% and the “Thymus wt. (% Decrease)” value is on record as 3.38%.
`CC1CC2C3CC(F)C4=CC(=O)C=CC4(C)C3(F)C(O)CC2(C)C1(OC(=O)c1ccco1)C(=O)SOCc1ccc(C(F)(F)F)cc1` (stereo not drawn) [IC.6, 6α,9α-Difluoro-17α-[(2-furanylcarbonyl)oxy]-11β-hydroxy-16α-methyl-3-oxoandrosta-1,4-diene-17β-carbonylsulfenic acid (4-trifluoromethylphenyl)methyl ester.]: in series [1] (dose 1000 mcg per pellet), the “Mean % Inhibition of Granuloma” value is 84.96% and the “Thymus wt. (% Decrease)” value stood at 10.96%.

The record behind these values is patent US8785425B2, “11β-hydroxyandrosta-4-ene-3-ones” (Sun Pharma Advanced Research Company Ltd., priority 2006, dated 2014).
